Patent US9173869B2, “Mediators of hedgehog signaling pathways, compositions and uses related thereto” (CURIS, INC., priority 1999, dated 2015)
pIC50: −log10 of the molar value.

Experiments:
[1] = tested on: Hedgehog pathway (Shh-induced Gli-transcription activity) in 10T1/2(s12) cells; assay: Gli-Luc assay (high-throughput screening, Hedgehog-responsive luciferase reporter); type: cell-based; conditions: Gli-Luc response, OCT-SHH 0.3 μg/ml, about 24 h
Description: Compounds to be tested are dissolved in DMSO to a concentration of 10 mM, and stored at −20° C. To activate the Hedgehog pathway in the assay cells, an octylated (lipid-modified) form of the N-terminal fragment of the Sonic Hedgehog protein (OCT-SHH) is used. This N-terminal SHH fragment is produced bacterially. The octylation involves reaction of the N-terminal fragment, via its amino-terminal cysteine moiety, with octyl maleimide.
Compounds may be tested in the “Gli-Luc” assay below, using the cell line 10T(s12), wherein the cells contain a Hedgehog-responsive reporter construct utilizing Luciferase as the reporter gene. In this way, Hedgehog pathway signaling activity can be measured via the Gli-Luc response.
10t1/2(s12) cells are plated in a 96-well micro-titer plate (MTP) at 20,000 cells/well in full medium [DMEM with 10% FBS]. Then plates are placed in the incubator for incubation overnight (O/N), at 37° C. and 5% CO2. After 24 h, the medium is replaced with Luciferase-assay medium (DMEM with 0.5% FBS). Compounds are thawed and diluted in assay medium at 3:1000 (about 300-fold) resulting in a starting concentration of about 30 μM.
Subsequently, 150 μl of each 30 μM sample is added to the first wells (in triplicate). The MTP samples are then diluted at 3-fold dilutions to a total of seven wells, ultimately resulting in a regiment of seven dilutions in triplicate, for each compound. Next, the protein ligand OCT-SHH is diluted in Luciferase-assay medium and added to each well at a final concentration of 0.3 μg/ml. Plates are then returned to the incubator for further incubation O/N, at 37° C. and 5% CO2. After about 24 h, plates are removed from the incubator and the medium is aspirated/discarded. Wells are washed once with assay buffer [PBS+1 mM Mg^2+ and 1 mM Ca^2+]. Then 50 μl of assay buffer is added to each well. The Luciferase assay reagent is prepared as described by the vendor (LucLite kit from Packard), and 50 μl is added to each well. Plates are incubated at room temperature (RT) for about 30 minutes after which the signals are read, again at RT, on a Topcount (Packard).

murine BCC lesions = assay: Cultured skin punches with BCC lesions from UV-irradiated Ptc-knockout heterozygote mouse (X-gal staining); type: cell-based
Description: Mouse 456 is a Ptc-knockout heterozygote that received UV irradiation for 6 months. The mouse developed many small BCC lesions, which were blue after X-gal staining. The mouse was sacrificed and the skin was excised with a 2 mm skin punch. Those skin punches were then cultured for 6 days. […] The effect was more obvious when 10 μM of 11 was added to the culture medium instead of 5 μM of 11.

[2] = tested on: ptc-1 lacZ reporter gene expression in lung explants; assay: E12.5 ptc-1 (d11) lacZ lung explant culture, lacZ staining; type: cell-based, mouse; conditions: lung explants grown 48 hrs, versus untreated control
Description: In yet another experiment, E12.5 old ptc-1 (d11) lacZ lungs were harvested and transgenic embryos identified by lacZ detection using tails. Lung explants were grown submerged in mouse explant medium (DMEM based, additives optimized for the culture of mouse lungs) for 48 hrs, fixed in lacZ fixative, rinsed and stained for lacZ O/N at 37° C. Control tissue was untreated, while test tissue was treated with 11. Results are depicted in FIG. 34: (A) Untreated control. Strong lacZ expression can be observed in distal and proximal mesenchyme.

[3] = tested on: gli-1 mRNA in ptc-null cells; assay: Ptc-null assay (RT-PCR / quantitative real-time PCR of gli-1 mRNA); type: cell-based, mouse; conditions: ptc-null cells cultured 3 days, 1 μM of test compound, compared with vehicle
Description: Ptc-null cells were cultured for 3 days in the presence of vehicle; jervine, a known Patched pathway antagonist (i) used here as a positive control; or 1 μM of a test compound. Total ribonucleic acid (RNA) was isolated from the cells and used for reverse transcriptase-polymerase chain reaction (RT-PCR). […] The gli-1 and actin mRNA samples were then loaded on 1.5% agarose gel and were detected by staining with ethidium bromide. The same samples were analyzed by the quantitative real-time polymerase chain reaction method to quantify the levels of gli-1 mRNA.

SMILES: CC(c1nc2ccccc2c(=O)n1-c1ccc(F)cc1)N(C)C(=O)Nc1cccc(C(F)(F)F)c1 (centres unmarked) [Compound 11, 2-{1′-[N-(3″-trifluoromethylphenylcarbamoyl)-N-methyl-amino]ethyl}-3-(4′″fluorophenyl)-quinazolin-4-one]
- pIC50 [1]: > 5.30
- effect on BCC lesions at 10 μM instead of 5 μM (murine BCC lesions; 10 μM versus 5 μM in culture medium, 6 days): more obvious
- number and size of BCC lesions (blue spots) (murine BCC lesions; skin punches of mouse 456 cultured for 6 days, compared to vehicle (DMSO), 5 or 10 μM): can decrease the number and size of BCC lesions
- lacZ reporter gene expression [2]: significantly decreased reporter gene expression
- expression of gli-1 [3]: no significant decrease
